From patent publication US20160084820A1, “METHODS OF TREATING OR PREVENTING PERIODONTITIS AND DISEASES ASSOCIATED WITH PERIODONTITIS” (priority 2010, published 2016)

Assays:
[1] = tested on: phagocytosed P. gingivalis in mouse peritoneal macrophages; format: cell-based, P. gingivalis ATCC 33277; conditions: Pg MOI=10:1; C5a 50 nM or C3a 200 nM; 24 or 48 hours post-infection
Description: The viability of phagocytosed P. gingivalis was monitored by an antibiotic protection-based intracellular survival assay, as previously described (Wang et al., 2007, J. Immunol., 179:2349-58). Briefly, mouse peritoneal macrophages were allowed to phagocytose P. gingivalis (MOI=10:1; 5×10^6 bacteria and 5×10^5 cells) for […] at 37° C. This was followed by washing to remove extracellular nonadherent bacteria and 1-hour treatment with antibiotics (300 μg/ml gentamicin and 200 μg/ml metronidazole) to eliminate residual or extracellular adherent bacteria. The macrophages were subsequently cultured overnight (for a total of 24 hours) or for 48 hours Immediately after, the macrophages were washed and lysed in sterile distilled water, and viable counts of internalized P. gingivalis were determined by plating serial dilutions of macrophage lysates on blood agar plates subjected to anaerobic culture.
The viability of phagocytosed P. gingivalis was monitored by an antibiotic protection-based intracellular survival assay, as previously described (Wang et al., 2007, J. Immunol., 179:2349-58)). Briefly, mouse peritoneal macrophages were allowed to phagocytose P. gingivalis (at a MOI=10:1; 5×10^6 bacteria and 5×10^5 macrophages) for 30 min at 37° C. This was followed by washing to remove extracellular nonadherent bacteria and 1-hour treatment with antibiotics (300 μg/ml gentamicin and 200 μg/ml metronidazole) to eliminate residual or extracellular adherent bacteria. The macrophages were subsequently cultured overnight for a total of 24 hours Immediately after, the macrophages were washed and lysed in sterile distilled water and viable counts of internalized P. gingivalis were determined by plating serial dilutions of macrophage lysates on blood agar plates subjected to anaerobic culture.

[2] = tested on: mouse peritoneal macrophages; assay: P. gingivalis phagocytosis and receptor expression by flow cytometry; format: cell-based; conditions: C5a 50 nM or C3a 200 nM, 30-min incubation
Description: First, experiments were performed to determine the effect of C5a (50 nM) or C3a (200 nM) on P. gingivalis phagocytosis by unprimed or IFN-γ-primed mouse peritoneal macrophages (FIG. 6A). The phagocytic index was calculated following a 30-min incubation using the following formula: % positive cells for fluorescently labeled P. gingivalis×MFI/100 (extracellular fluorescence was quenched prior to flow cytometry). Mouse macrophages were incubated at 37° C. for 30 min (B) or 24 hours (C) with medium, C5a (50 nM) only, or P. gingivalis (MOI=10:1) with or without C5a (50 nM). The expression levels of the indicated receptors, which coordinately mediate P. gingivalis uptake, were determined by flow cytometry after cell staining with appropriate fluorescently labeled antibodies (FIGS. 6B and 6C). The 30-min time point was examined to determine possible induced surface expression of preformed receptors from intracellular pools. […] Mouse-specific mAbs to TLR2 (clone 6C2), TLR1 (TR23), CD14 (Sa2-8), CD11b (M1/70), and CD18 (M18/2) were obtained from e-Bioscience.

[3] = tested on: lipid rafts (GM1 ganglioside); assay: FRET of TLR2, C5aR, CXCR4 with GM1 lipid raft marker; format: cell-based, mouse; conditions: MCD 10 mM for 30 min
Description: Upon stimulation for 10 min at 37° C. with P. gingivalis, mouse macrophages were labeled with a mixture of Cy3-conjugated (donor) and Cy5-conjugated (acceptor) antibodies, as indicated in FIG. 4I. In additional experiments shown in FIG. 4I, FITC-labeled P. gingivalis was used as donor and TRITC-labeled receptors served as acceptors. The cells were washed and fixed, and energy transfer between various donor-acceptor pairs was calculated from the increase in donor fluorescence after acceptor photobleaching (REF 9, 14). […] The conjugation of antibodies to Cy3 or Cy5 was performed using kits from Amersham Biosciences.
Supplemental experiments also examined the association of TLR2, C5aR, and CXCR4 with GM1 (lipid raft marker) in P. gingivalis-stimulated macrophages (FIG. 10). Mouse macrophages were pretreated (or not) with methyl-β-cyclodextrin (MCD; 10 mM for 30 min) and then stimulated for 10 min with P. gingivalis (Pg; MOI=10:1) or medium only (med). Fluorescence resonance energy transfer (FRET) between TLR2, C5aR, CXCR4, TLR5, or MHC Class I (Cy3-labeled) and the GM1 ganglioside (Cy5-labeled) was measured from the increase in donor (Cy3) fluorescence after acceptor (Cy5) photobleaching. TLR5 and MHC Class I served as negative controls. […] As expected, max FRET values (38±1.2) were not affected by the cell activation status (med vs. Pg) or the use or not of MCD.

## C3a: related anaphylatoxin C3a from R&D Systems
[1]
  intracellular survival of P. gingivalis in macrophages (viable counts of internalized bacteria): not by the related anaphylatoxin C3a
[2]
  P. gingivalis phagocytosis: not significantly affected

## methyl-β-cyclodextrin [MCD]
[3]
  FRET increase between receptors and GM1 in P. gingivalis-stimulated macrophages: reversal of FRET increase
